Laboratory results reported in the NIST ThermoML archive (doi:10.1016/j.jct.2017.11.012).

Settings: for mass density: 101.33 kPa, Liquid, Buoyancy - hydrostatic balance with magnetic suspension - one sinker

CCCCn1cc[n+](C)c1.[Br-] [1-butyl-3-methylimidazolium bromide]
surface tension liquid-gas [mN/m]
Settings	Ring tensiometer	Wilhelmy Plate
308.39 K	50.28	49.98
313.11 K	49.8	49.69
318.48 K	49.51	49.33
323.54 K	–	48.98
323.57 K	49.22	–
328.1 K	–	48.67
328.14 K	48.96	–
333.02 K	–	48.35
333.03 K	48.6	–
337.99 K	48.27	–
338.01 K	–	48.07
342.75 K	48	47.75
349.14 K	47.72	–
349.16 K	–	47.31
353.12 K	47.24	–
353.41 K	–	47.09
358.27 K	47.27	–
358.3 K	–	46.78
362.9 K	46.86	–
362.92 K	–	46.39

Settings	mass density [kg/m3]
308.39 K	1299.64
313.12 K	1296.36
318.5 K	1292.56
323.58 K	1288.88
328.14 K	1285.46
333.02 K	1281.54
337.96 K	1278.29
342.67 K	1275.32
349.08 K	1271.43
353.08 K	1268.23
358.19 K	1264.49
362.86 K	1261.43

CCCCCCCCCCn1cc[n+](C)c1.[Br-] [1-decyl-3-methylimidazolium bromide]
Settings	mass density [kg/m3]
298.41 K	1128.2
303.45 K	1124.55
308.2 K	1121.27
313.5 K	1117.38
318.29 K	1113.91
322.96 K	1110.37
327.96 K	1106.69
333.59 K	1102.59
337.76 K	1099.91
343.08 K	1095.88
348.29 K	1092.59
352.96 K	1089.23
358.48 K	1085.6
361.87 K	1083.32

Settings	surface tension liquid-gas [mN/m]
303.38 K, Ring tensiometer	28.04
303.43 K, Wilhelmy Plate	27.64
308.15 K, Ring tensiometer	27.97
313.47 K, Ring tensiometer	27.73
318.26 K, Ring tensiometer	27.54
322.99 K, Ring tensiometer	27.14
323.02 K, Wilhelmy Plate	26.87
328.01 K, Ring tensiometer	27.01
328.08 K, Wilhelmy Plate	26.65
332.75 K, Ring tensiometer	26.87
332.76 K, Wilhelmy Plate	26.45
337.48 K, Wilhelmy Plate	26.22
338.06 K, Ring tensiometer	26.74
343.15 K, Ring tensiometer	26.07
343.19 K, Wilhelmy Plate	25.97
347.35 K, Ring tensiometer	26.14
347.47 K, Wilhelmy Plate	25.82
352.46 K, Ring tensiometer	25.77
352.93 K, Wilhelmy Plate	25.57
358.38 K, Ring tensiometer	25.28
358.41 K, Wilhelmy Plate	25.36
361.45 K, Ring tensiometer	25.51
361.5 K, Wilhelmy Plate	25.22

CCn1cc[n+](C)c1.[Br-] [1-ethyl-3-methylimidazolium bromide]
surface tension liquid-gas [mN/m]
Settings	343.14 K	348.29 K	348.32 K	352.84 K	358.28 K	364.1 K	364.11 K
Ring tensiometer	62.01	61.86	–	61.28	61.25	60.53	–
Wilhelmy Plate	–	–	61.4	61.03	60.65	–	60.34

Settings	mass density [kg/m3]
348.26 K	1381.17
352.77 K	1378.39
358.17 K	1375.04
364.02 K	1370.88

CCCCCCCn1cc[n+](C)c1.[Br-] [1-heptyl-3-methylimidazolium bromide]
Settings	mass density [kg/m3]
288.61 K	1204.51
293.46 K	1200.12
298.41 K	1196.78
303.25 K	1193
308.21 K	1189.59
313.68 K	1184.48
318.07 K	1180.84
323.13 K	1177.36
328.04 K	1173.42
333.16 K	1169.7
338.28 K	1165.8
342.93 K	1162.61
348 K	1159.27
353.15 K	1155.57
358.44 K	1151.81
361.83 K	1149.33

surface tension liquid-gas [mN/m]
Settings	Ring tensiometer	Wilhelmy Plate
313.61 K	34.83	34.57
317.99 K	34.5	–
318.02 K	–	34.35
323.11 K	34.21	–
323.13 K	–	34.09
328.07 K	34.3	–
328.11 K	–	33.89
333.19 K	33.55	–
333.24 K	–	33.58
338.33 K	33.25	33.3
341.81 K	33.17	–
341.91 K	–	33.14
347.18 K	33.07	–
347.23 K	–	32.89
353.09 K	32.56	–
353.14 K	–	32.61
358.31 K	32.41	–
358.37 K	–	32.4
361.72 K	32.03	–
361.8 K	–	32.17

CCCCCCCCCn1cc[n+](C)c1.[Br-] [1-methyl-3-nonylimidazolium bromide]
Settings	mass density [kg/m3]
293.53 K	1151.11
298.66 K	1147.53
303.27 K	1143.87
308.55 K	1140.39
313.46 K	1136.5
318.04 K	1132.93
323.21 K	1129.22
327.91 K	1125.75
333.09 K	1122.06
338.45 K	1118.47
342.75 K	1115.49
348.28 K	1112.09
353.51 K	1108.37
358.3 K	1105.2
361.69 K	1103.16

surface tension liquid-gas [mN/m]
Settings	Ring tensiometer	Wilhelmy Plate
298.64 K	30.63	–
303.27 K	30.41	–
303.28 K	–	30.12
308.54 K	30.17	–
308.55 K	–	29.91
313.44 K	29.95	29.73
318.03 K	29.77	29.54
323.2 K	29.62	–
323.23 K	–	29.3
327.94 K	29.41	–
327.97 K	–	29.1
333.09 K	29.19	–
333.11 K	–	28.86
338.49 K	28.72	28.59
342.76 K	28.51	–
342.8 K	–	28.39
348.23 K	28.46	–
348.31 K	–	28.18
352.32 K	27.98	–
352.4 K	–	27.99
358.25 K	27.94	–
358.31 K	–	27.75
361.6 K	27.82	–
361.68 K	–	27.59

CCCCCCCCn1cc[n+](C)c1.[Br-] [1-methyl-3-octylimidazolium bromide]
Settings	mass density [kg/m3]
293.61 K	1173.83
298.22 K	1170.38
303.23 K	1166.69
307.98 K	1163.19
313.53 K	1159.21
318.39 K	1155.7
323.35 K	1151.66
328.26 K	1147.97
332.57 K	1145.04
338.39 K	1140.81
342.96 K	1137.99
347.82 K	1135.43
353.15 K	1131.58
358.97 K	1127.78
360.84 K	1126.32

surface tension liquid-gas [mN/m]
Settings	Ring tensiometer	Wilhelmy Plate
303.23 K	32.9	32.52
307.93 K	–	32.34
307.95 K	32.68	–
313.51 K	32.49	32.16
318.36 K	–	31.99
318.37 K	32.28	–
323.33 K	–	31.75
323.34 K	32.03	–
328.25 K	–	31.56
328.26 K	31.79	–
332.59 K	31.67	–
332.6 K	–	31.43
338.4 K	31.5	–
338.44 K	–	31.17
343.06 K	30.97	–
343.07 K	–	30.89
347.49 K	30.57	–
347.69 K	–	30.73
352.5 K	–	30.58
352.52 K	30.66	–
357.51 K	30.27	–
357.64 K	–	30.33
360.82 K	30.43	–
360.88 K	–	30.24

CCC[n+]1ccn(C)c1.[Br-] [1-methyl-3-propylimidazolium bromide]
surface tension liquid-gas [mN/m]
Settings	Ring tensiometer	Wilhelmy Plate
328.53 K	–	55.02
328.55 K	55.07	–
333.09 K	–	54.74
333.1 K	55.08	–
337.75 K	54.69	54.46
343.78 K	54.17	–
343.8 K	–	53.93
347.98 K	53.66	–
348.01 K	–	53.75
352.22 K	–	53.51
352.34 K	53.52	–
358.15 K	52.86	–
358.17 K	–	53.09
362.78 K	52.94	–
362.89 K	–	52.72

Settings	mass density [kg/m3]
333.07 K	1332.55
337.73 K	1329.41
343.74 K	1325.39
347.91 K	1322.26
352.28 K	1318.84
358.1 K	1314.79
362.76 K	1310.9

Br.Cn1ccnc1 [1-methylimidazolium bromide]
surface tension liquid-gas [mN/m]
Settings	Ring tensiometer	Wilhelmy Plate
323.07 K	67.99	68.35
328.84 K	67.68	67.81
332.74 K	–	67.37
332.76 K	67.45	–
337.93 K	67.14	–
338.02 K	–	66.81
344.29 K	66	–
344.42 K	–	66.16
347.21 K	65.6	–
347.25 K	–	65.85
353.02 K	64.6	–
353.08 K	–	65.23
358.29 K	64.85	–
358.33 K	–	64.67
364.65 K	64.42	–
364.75 K	–	63.96

Settings	mass density [kg/m3]
328.83 K	1557.9
332.76 K	1554.36
337.92 K	1550.16
344.29 K	1544.92
347.1 K	1542.88
353.02 K	1538.47
358.15 K	1534.17
364.58 K	1530.63

CCCCCn1cc[n+](C)c1.[Br-] [1-pentyl-3-methylimidazolium bromide]
Settings	mass density [kg/m3]
298.49 K	1262.83
303.3 K	1259.38
308.12 K	1256.49
313.27 K	1252.83
318.27 K	1249.49
323.3 K	1245.55
327.41 K	1242.66
333.16 K	1239.16
338.01 K	1236.12
343.01 K	1232.8
348.13 K	1229.53
353.01 K	1226.21
358.12 K	1222.61
362.97 K	1219.41

Settings	surface tension liquid-gas [mN/m]
333.23 K, Ring tensiometer	41.96
333.26 K, Wilhelmy Plate	41.79
338.06 K, Ring tensiometer	41.95
338.08 K, Wilhelmy Plate	41.6
343.07 K, Ring tensiometer	41.84
343.09 K, Wilhelmy Plate	41.38
348.23 K, Ring tensiometer	41.59
348.26 K, Wilhelmy Plate	41.18
353.11 K, Ring tensiometer	41.45
353.13 K, Wilhelmy Plate	41
358.22 K, Ring tensiometer	41.24
358.24 K, Wilhelmy Plate	40.81
363.07 K, Ring tensiometer	41.04
363.12 K, Wilhelmy Plate	40.6
